One block for each compound: values may come before it.
Assay: photoluminescence quantum yield (fraction); solvent given as SMILES
[1] = in O=P(c1ccccc1)(c1ccccc1)c1ccccc1Oc1ccccc1P(=O)(c1ccccc1)c1ccccc1

photoluminescence quantum yield (in ClCCl): 0.383
Compound: FC(F)(F)c1ccc(-n2c(-c3ccc(N(c4ccc(-c5ccc(N(c6ccc(-c7nc8c9ccccc9c9ccccc9c8n7-c7ccc(C(F)(F)F)cc7)cc6)c6ccc(-c7nc8c9ccccc9c9ccccc9c8n7-c7ccc(C(F)(F)F)cc7)cc6)cc5)cc4)c4ccc(-c5nc6c7ccccc7c7ccccc7c6n5-c5ccc(C(F)(F)F)cc5)cc4)cc3)nc3c4ccccc4c4ccccc4c32)cc1

photoluminescence quantum yield (in ClC(Cl)Cl): 0.64
Compound: Cc1ccc(S(=O)(=O)/N=c2\oc3cccc4c5c(-c6ccccc6)oc6cccc(c(c2-c2ccccc2)c34)c65)cc1

photoluminescence quantum yield (in CO): 0.53
Compound: c1ccc(N(c2ccccc2)c2ccc(-c3cncs3)cc2)cc1

photoluminescence quantum yield (in c1cc(-c2cccc(-n3c4ccccc4c4ccccc43)c2)cc(-n2c3ccccc3c3ccccc32)c1): 0.94
Compound: c1ccc(-c2nc(-c3ccccc3)nc(-c3ccc(-c4ccc5c(c4)C4(c6ccccc6-c6ccccc64)c4cc(-c6ccc(-c7nc(-c8ccccc8)nc(-c8ccccc8)n7)cc6)ccc4N5c4ccccc4)cc3)n2)cc1

photoluminescence quantum yield (in ClCCl): 0.0612
Compound: CC1(C)c2ccccc2N(c2ccc(-c3nc(-c4ccccn4)n(-c4ccccc4)n3)cc2)c2ccccc21

photoluminescence quantum yield (in C1COCCO1): 0.71
Compound: c1ccc(-c2ccc(-c3ccc(-c4ccccc4)cc3)cc2)cc1

photoluminescence quantum yield (in ClC(Cl)Cl): 0.08
Compound: Cc1ccc(/C2=c3\cc/c(o3)=C(\c3ccc(C)cc3)c3ccc([nH]3)-c3ccc4n3[B-](F)(F)[N+]3=C(C=CC3=C4c3ccco3)c3ccc2[nH]3)cc1

photoluminescence quantum yield (in ClCCl): 0.47
photoluminescence quantum yield (in c1cc(-n2c3ccccc3c3ccccc32)cc(-n2c3ccccc3c3ccccc32)c1): 0.45
Compound: c1ccc(N(c2ccccc2)c2ccc(-c3ccc4c(c3)C3(c5cc(-c6ccc(N(c7ccccc7)c7ccccc7)cc6)ccc5O4)c4ccccc4-c4ccccc43)cc2)cc1

photoluminescence quantum yield (in CC1CCCO1): 0.8
Compound: CC1=CC(/C=C/c2ccc3ccc4cccc5ccc2c3c45)=[N+]2C1=C(c1ccccc1)c1c(C)cc(/C=C/c3ccc4ccc5cccc6ccc3c4c56)n1[B-]2(F)F

photoluminescence quantum yield (in ClCCl): 0.59
Compound: CN(C)c1ccc(/C=C/c2cc(/C=C/c3ccc(N(C)C)cc3)nc(/C=C/c3ccc(N(c4ccccc4)c4ccccc4)cc3)n2)cc1

photoluminescence quantum yield (in C1CCOC1): 0.66
Compound: CCCCCCOc1ccc(/C=C/c2ccc(N(c3ccc(/C=C/c4ccc(OCCCCCC)cc4)cc3)c3ccc(-c4nc5ccccc5nc4-c4ccc(N(c5ccc(/C=C/c6ccc(OCCCCCC)cc6)cc5)c5ccc(/C=C/c6ccc(OCCCCCC)cc6)cc5)cc4)cc3)cc2)cc1

photoluminescence quantum yield (in CCCCCC): 0.7
photoluminescence quantum yield (in CO): 0.78
photoluminescence quantum yield (in CS(C)=O): 0.6
photoluminescence quantum yield (in ClC(Cl)Cl): 0.92
photoluminescence quantum yield (in ClCCl): 0.94
photoluminescence quantum yield (in O): 0.05
Compound: O=S(=O)(/N=c1\oc2cccc3c4c(-c5ccccc5)oc5cccc(c(c1-c1ccccc1)c23)c54)C(F)(F)F

photoluminescence quantum yield (in C1CCOC1): 0.32
Compound: c1ccc(/C(=C(\c2ccccc2)c2ccccc2-c2ccc(-c3ccccc3)cc2)c2ccccc2-c2ccc(-c3ccccc3)cc2)cc1

photoluminescence quantum yield (in CC#N): 0.19
photoluminescence quantum yield (in CCCCOCCCC): 0.21
photoluminescence quantum yield (in CO): 0.21
Compound: c1ccc(Nc2nc(Nc3ccccc3)nc(Nc3cc4ccc5cccc6ccc(c3)c4c56)n2)cc1

photoluminescence quantum yield (in ClCCl): 0.99
Compound: C(=C/c1ccc(N(c2ccccc2)c2ccccc2)cc1)/c1ccc(N(c2ccccc2)c2ccccc2)cc1

photoluminescence quantum yield (in ClC(Cl)Cl): 0.61
Compound: c1ccc2sc(-c3ccc(-c4nnc(-c5ccc(-c6nnc(-c7ccc(-c8cc9ccccc9s8)s7)o6)cc5)o4)s3)cc2c1

More lines, now with the values behind:

Compound: COc1ccc(-c2nc(-c3ccc(OC)cc3C)nc(-c3ccc(N4c5ccccc5C5(c6ccccc6-c6ccccc65)c5ccccc54)cc3C)n2)c(C)c1
photoluminescence quantum yield [1]: 0.51

Compound: Cc1ccccc1CN(Cc1ccccc1C)c1nc(C#N)c(N(Cc2ccccc2C)Cc2ccccc2C)nc1C#N
photoluminescence quantum yield (in ClC(Cl)Cl): 0.73

Compound: COc1cc(C2=CC(c3ccccc3)=C(c3ccccc3)C2)cc(OC)c1OC
photoluminescence quantum yield (in ClCCl): 0.0137

Compound: CC(=O)[B-]1(C(C)=O)OC(c2ccccc2)=CC(c2ccccc2)=[O+]1
photoluminescence quantum yield (in CC#N): 0.8
photoluminescence quantum yield (in ClC(Cl)(Cl)Cl): 0.9

Compound: CN(C)CCN(Cc1c2ccccc2cc2ccccc12)c1ccc([N+](=O)[O-])cn1
photoluminescence quantum yield (in C1CCCCC1): 0.0003
photoluminescence quantum yield (in C1CCOC1): 0.0009
photoluminescence quantum yield (in CC#N): 0.0383
photoluminescence quantum yield (in CC(C)=O): 0.00324
photoluminescence quantum yield (in CCO): 0.0115
photoluminescence quantum yield (in CN(C)C=O): 0.0398
photoluminescence quantum yield (in CO): 0.00453
photoluminescence quantum yield (in ClC(Cl)Cl): 0.005

Compound: CC(=O)c1c(N[C@@H](CC(C)C)C(=O)O)c2ccc(N(C)C)cc2oc1=O
photoluminescence quantum yield (in ClCCl): 0.0027

Compound: c1ccc2c(-c3ccc4sc5ccccc5c4c3)c3ccccc3cc2c1
photoluminescence quantum yield (in C1CCCCC1): 0.52
photoluminescence quantum yield (in CC#N): 0.43
photoluminescence quantum yield (in ClCCl): 0.7

Compound: COc1cc2c(cc1/C=C/C1=CC(=C(C#N)C#N)CC(C)(C)C1)c1ccccc1n2C
photoluminescence quantum yield (in C1CCOC1): 0.013
photoluminescence quantum yield (in CC#N): 0.031
photoluminescence quantum yield (in CCO): 0.021
photoluminescence quantum yield (in CCOC(C)=O): 0.009
photoluminescence quantum yield (in CN(C)C=O): 0.038
photoluminescence quantum yield (in CS(C)=O): 0.059
photoluminescence quantum yield (in Cc1ccccc1): 0.007
photoluminescence quantum yield (in ClC(Cl)Cl): 0.018
photoluminescence quantum yield (in ClCCl): 0.022

Compound: CCC1=C(C)C2=Cc3c4ccccc4c4n3[B-](c3cc[n+](C)cc3)(Oc3ccccc3-4)[N+]2=C1C=Cc1ccc(OC)cc1 (stereo not given)
photoluminescence quantum yield (in CO): 0.21
photoluminescence quantum yield (in CS(C)=O): 0.26

Compound: COc1ccc(/C=C(\C)c2nc3ccccc3o2)cc1
photoluminescence quantum yield (in C1CCCCC1): 0.002

Compound: CC1(C)c2ccccc2N(c2ccccc2)c2ccc(S(=O)(=O)c3ccc4c(c3)C(C)(C)c3ccccc3N4c3ccccc3)cc21
photoluminescence quantum yield [1]: 0.5

Compound: N#Cc1ccc2c(c1)CCc1nc(-c3ccc([N+](=O)[O-])cc3)c3c(c1-2)CCc1cc(C#N)ccc1-3
photoluminescence quantum yield (in C1CCOC1): 0.043
photoluminescence quantum yield (in CC#N): 0.039
photoluminescence quantum yield (in CCCCCC): 0.3
photoluminescence quantum yield (in CCOC(C)=O): 0.015
photoluminescence quantum yield (in CO): 0.01
photoluminescence quantum yield (in CS(C)=O): 0.073
photoluminescence quantum yield (in Cc1ccccc1): 0.014
photoluminescence quantum yield (in ClCCl): 0.292

Compound: Cc1ccc(-c2c3ccc([nH]3)c3nc(c(-c4ccc([N+](=O)[O-])cc4)c4ccc([nH]4)c4ccc([nH]4)c(-c4ccc(C)cc4)c4ccc2o4)C=C3)cc1
photoluminescence quantum yield (in C1CCOC1): 0.018
photoluminescence quantum yield (in Cc1ccccc1): 0.083
photoluminescence quantum yield (in c1ccccc1): 0.098

Compound: CNC1=C2C=CC=[N+]2[B-](F)(F)n2cccc21
photoluminescence quantum yield (in C1CCCCC1): 0.7
photoluminescence quantum yield (in CC(C)=O): 0.16
photoluminescence quantum yield (in CCO): 0.16
photoluminescence quantum yield (in CCOC(C)=O): 0.42
photoluminescence quantum yield (in CO): 0.1
photoluminescence quantum yield (in OCC(F)(F)F): 0.23

Compound: CCCCCCn1c2cc(C(=O)OCC)ccc2c2c1c1ccc(C(=O)OCC)cc1n2CCCCCC
photoluminescence quantum yield (in CCCO): 0.6

Compound: O=c1ccc2cc3c(cc2o1)OCC3
photoluminescence quantum yield (in CC(C)O): 0.23
photoluminescence quantum yield (in CCO): 0.23
photoluminescence quantum yield (in CCOCC): 0.06
photoluminescence quantum yield (in CO): 0.3
photoluminescence quantum yield (in O): 0.83

Compound: COc1ccc2c3ccc(OC)cc3n(-c3ccc(-c4nnc(-c5c(C)cc(C)cc5C)o4)cc3C)c2c1
photoluminescence quantum yield (in Cc1ccccc1): 0.06

Compound: CCN(CC)c1ccc2cc(-c3cn4cc5ccccc5cc4n3)c(=O)oc2c1
photoluminescence quantum yield (in ClC(Cl)Cl): 0.92

Compound: CC1=N/C(=C\c2ccc(N(C)C)cc2)C(=O)N1C
photoluminescence quantum yield (in C1CCCCC1): 0.0001
photoluminescence quantum yield (in C1CCOC1): 0.0004
photoluminescence quantum yield (in CC#N): 0.0003
photoluminescence quantum yield (in CO): 0.0003
photoluminescence quantum yield (in CS(C)=O): 0.0002
photoluminescence quantum yield (in ClCCl): 0.0009
photoluminescence quantum yield (in O): 0.0002

Compound: c1ccc2c3c(ccc2c1)-c1cccc2c1c-3cc1ccccc12
photoluminescence quantum yield (in CCCCCCC): 0.16

Compound: CCn1c2ccccc2c2cc(-c3cc(-c4ccc5c(c4)c4ccccc4n5CC)nc(S(C)(=O)=O)n3)ccc21
photoluminescence quantum yield (in C1CCOC1): 0.61
photoluminescence quantum yield (in CCOC(C)=O): 0.76
photoluminescence quantum yield (in CN(C)C=O): 0.6
photoluminescence quantum yield (in Cc1ccccc1): 0.77
photoluminescence quantum yield (in ClCCl): 0.72

Compound: N#Cc1nn(-c2ccc(F)cc2)nc1N1CCCC1
photoluminescence quantum yield (in CC#N): 0.683

Compound: CCN1c2ccc(C3=CC(c4ccccc4)=[O+][B-](F)(F)O3)cc2Sc2cc(C3=CC(c4ccccc4)=[O+][B-](F)(F)O3)ccc21
photoluminescence quantum yield (in ClCCl): 0.46

Compound: CCCCCCNC(=O)c1sc(-c2ccc(-c3cc(-c4ccc(C(C)(C)C)cc4)c(C(=O)NCCCCCC)s3)s2)cc1-c1ccc(C(C)(C)C)cc1
photoluminescence quantum yield (in ClCCl): 0.31

Compound: Fc1c(-n2c3ccccc3c3ccccc32)c(-c2nnc(-c3ccccc3)o2)c(-n2c3ccccc3c3ccccc32)c(-n2c3ccccc3c3ccccc32)c1-n1c2ccccc2c2ccccc21
photoluminescence quantum yield (in Cc1ccccc1): 0.1

Compound: COc1cc2c(cc1-c1ccsc1)Cc1c3c(c4c(c1-2)-c1cc(OC)c(-c2ccsc2)cc1C4)C(=O)N(CCC(C)C)C3=O
photoluminescence quantum yield (in C1CCOC1): 0.55

Compound: COc1cc2cc(C#Cc3ccc(/C=C(\C#N)C(=O)O)cc3)c(=O)oc2cc1OC
photoluminescence quantum yield (in CC#N): 0.05

Compound: c1cc2ccc3ccc4cc3c2cc1c1ccc2c(c1)c1cc(ccc1[C@]13OCCO[C@]21OCCO3)c1ccc2c(c1)c1cc4ccc1[C@]13OCCO[C@]21OCCO3
photoluminescence quantum yield (in Cc1ccccc1): 0.63

Compound: COC(=O)C1=C(C(=O)OC)C2(c3ccccc3-c3c(C(=O)OC)cccc32)[C@@H](c2ccc(Cl)cc2)C=C2c3cc(OC)c(OC)cc3CCN21 (stereo not given in full)
photoluminescence quantum yield (in ClCCl): 0.00593

Compound: CC1=[N+]2C(=C(c3ccccc3)c3ccc(C)n3[B-]2(F)F)C=C1
photoluminescence quantum yield (in C1CCCCC1): 0.29
photoluminescence quantum yield (in C1CCOC1): 0.25
photoluminescence quantum yield (in CC#N): 0.17
photoluminescence quantum yield (in CCOC(C)=O): 0.25
photoluminescence quantum yield (in CO): 0.19
photoluminescence quantum yield (in Cc1ccccc1): 0.42
photoluminescence quantum yield (in ClC(Cl)Cl): 0.38

Compound: c1cc2c3c(cccc3c1)NC(c1ccc3ccc4cccc5ccc1c3c45)N2
photoluminescence quantum yield (in CC#N): 0.24
photoluminescence quantum yield (in CO): 0.05
photoluminescence quantum yield (in CS(C)=O): 0.08
photoluminescence quantum yield (in Cc1ccccc1): 0.51

Compound: CC(C)(C)/C=C/C1=[N+]2C(=C(c3c4ccccc4cc4ccccc34)c3ccc(/C=C/C(C)(C)C)n3[B-]2(F)F)C=C1
photoluminescence quantum yield (in ClC(Cl)Cl): 0.58

Compound: COc1ccc2cc(/C=C/c3ccccc3)c(=O)oc2c1
photoluminescence quantum yield (in CC#N): 0.71

Compound: c1ccc(-n2cccc2)cc1
photoluminescence quantum yield (in CC#N): 0.17
photoluminescence quantum yield (in CCCCCC): 0.24
